The text below walks through data of patent US20160264636A1, “PEPTIDE INHIBITORS OF TEAD/YAP-TAZ INTERACTION” (UNIVERSITE PIERRE ET MARIE CURIE (PARIS 6), priority 2013, published 2016).

Read-outs that look alike come from different tables or passages of the source. Peptide text beside a SMILES is read from it.

Data set [1] deals with colon, lung and ovarian cancer cell lines. Briefly: MTT cytotoxicity, comparison of TAZ LV and VL peptides. The data set is classed as cell-based, human. Particulars: all lines tested except ES2: HCT116, HT29, SW480, OVCAR8, A549, HT1975; 72 h; 0.1 to 100 μM (FIGS. 5 to 8). How it is done: (§1) The cytotoxicity of penetrating peptides or chemotherapeutic agents, alone or in combination, was evaluated by the (3-(4,5-dimethylthiazol-2-yl)-2,5-diphenyltetrazolium bromide) tetrazolium (MTT) reduction assay. The cells were seeded in 96-well plates (100 μL/well) at a cell density defined from growth curves. After 24 hours of incubation, cells were treated with the peptides for 72 hours. The wells were rinsed two times with RPMI. After washing, 10 μl of stock MTT solution (5 mg/ml; MTT (SIGMA #M-2128) in PBS Dubecco's 1× without Ca^2+ and Mg^2+) was added to a final volume of 100 μl of culture medium. Cell lines were incubated for additional 4 hours at 37° C. under humid atmosphere with 5% (v/v) CO2. The formation of blue formazan crystals was detected under a microscope. An equal volume of 10% SDS (MERCK, #926.238) in 10 mM HCl was added to each well and the plate was placed in the incubator overnight to dissolve formazan crystals. The plates were mixed to ensure complete solubilisation of formazan crystals and absorbance was measured at 570 nm and 620 nm. The percentage of viable cells was estimated using the formula: % cell viability=ΔOD(570-620) treated/ΔOD(570-620)control×100.

The test system of data set [2] is MP46 uveal melanoma cells. It is filed as cell-based, human. The note with it: 72 h. The method, then:
as §1, with “treated/ΔOD(570-620)control×100. […]” for “treated/ΔOD(570-620)control×100.”
(§2) All the uveal melanoma cell lines were treated for 72 h with different concentrations of the peptides TAZ, “LV”, YAP and TEAD (SEQ ID NO: 35, 36, 37). Cytotoxicity was analysed as described in example 2. […]

The subject of data set [3] is MP66 uveal melanoma cells. Briefly: MTT cytotoxicity assay, MP66. Particulars: MM66 (so in the source); 100 μM; 72 h. It is filed as cell-based, human. The method, then:
as §1, with “treated/ΔOD(570-620)control×100. […]” for “treated/ΔOD(570-620)control×100.”
as §2
(Tetrazolium dyes change colour on reduction, which living cells bring about.)

The subject of data set [4] is MP41 uveal melanoma cells. Nature of the data set: MTT cytotoxicity assay, MP41. The data set is classed as cell-based, human. The note with it: 72 h. How it is done:
as §1
MP41, MP46 and MP66 cell lines come from uveal melanoma patient derived xenografts. They were cultured in RPMI medium supplemented with 20% of FCS.
All the uveal melanoma cell lines were treated for 72 h with different concentrations of the peptides TAZ, “LV”, YAP and TEAD (SEQ ID NO: 35, 36, 37). Cytotoxicity was analysed as described in example 2. […] The best effect was shown in MP41 with about 40% cytotoxicity at 100 μM.

A further data set has as its system OVCAR8 cells. Nature of the data set: MTT cytotoxicity assay, OVCAR8. The data set is classed as cell-based. Particulars: Table VIII, 72 h, MTT, 25% cell death. The method, then:
as §1
(§3) ES2, IGROV-1, OVCAR8 and SKOV3 cell lines come from human ovarian cancer.
(§4) Cell-penetrating peptides (CPPs) comprising the binding site of TEAD to TAZ or YAP or of YAP to TEAD (TAZ, TEAD and YAP peptides, respectively) were chemically synthesized. The effect of the peptides on cell viability was assayed on several human ovarian cancer cell lines. All the ovarian cancer cell lines were treated for 72 h with different peptide concentrations. Cytotoxicity was analysed as described in example 2.

The next data set relates to ES2 cells. Briefly: MTT cytotoxicity assay, ES2. It is filed as cell-based. Particulars: 72 h. The method, then: as §1, §3, §4
The test system of another data set is A549 cells. It is filed as cell-based. The method, then: (§5) H1650, H1975, H1299, A549 cell lines were cultured in DMEM medium supplemented with 10% of FCS. HBEC cell lines (wt and Ras V12) were cultured in KSFM supplemented with growth factors. All the cell lines come from human non small cell lung cancer (NSCLC).
as §1
(§6) Cell-penetrating peptides (CPPs) comprising the binding site of TEAD to TAZ or YAP or of YAP to TEAD (TAZ, TEAD and YAP peptides, respectively) were chemically synthesized. The effect of the peptides on cell viability was assayed on several human non small cell lung cancer (NSCLC) cell lines. All the lung cancer cell lines were treated for 72 h with different peptide concentrations. Cytotoxicity was analysed as described in Materials and Methods.

The subject of the next data set is H1299 cells. The data set is classed as cell-based. How it is done: as §5, §1, §6
For a further data set, the system named is HBEC RasV12 cells. It is filed as cell-based. How it is done:
as §5, §1, §6

Another data set has as its system H1650 cells. The data set is classed as cell-based. How it is done: as §5, §1, §6
For the next data set, the system named is H1975 cells. It is filed as cell-based. The method, then: as §5, §1, §6
In the next data set the test system is HBEC wt cells. It is filed as cell-based. The note with it: for Cell viability (%): HBEC wt. How it is done:
as §5, §1, §6

For another data set, the system named is IGROV-1 cells. Nature of the data set: MTT cytotoxicity assay, IGROV. It is filed as cell-based. The note with it: Table VIII, 72 h, MTT, 25% cell death. How it is done: as §1, §3, §4
For another data set, the system named is SKOV3 cells. Nature of the data set: MTT cytotoxicity assay, SKOV3. The data set is classed as cell-based. The note with it: Table VIII, 72 h, MTT, 25% cell death. How it is done: as §1, §3, §4
Where [5] appears, read: Table II, 72 h, MTT, 25% cell death.
The mark [6] stands for this setting: Table V, drug alone vs its vehicle (Glucose 5% or NaCl).
Where [7] appears, read: Table VI, peptide alone vs HPCD 10%.

As to “VKKKKIKAEIKI-PPHAFFVLKFWADLNWGPSGEEAGAG (VKKKKIKAEIKIPPHAFFVLKFWADLNWGPSGEEAGAG) [TAZ “VL”]”, the “effect on cellular viability, TAZ “LV” compared with TAZ “VL”” value in data set [1] is on record as “same effect”.

In general, IC50 refers to the concentration at which inhibition is half-maximal. With `CC[C@H](C)[C@H](NC(=O)[C@H](CCCCN)NC(=O)[C@H](CCCCN)NC(=O)[C@H](CCCCN)NC(=O)[C@H](CCCCN)NC(=O)[C@@H](N)C(C)C)C(=O)N[C@@H](CCCCN)C(=O)N[C@@H](C)C(=O)N[C@@H](CCC(=O)O)C(=O)N[C@H](C(=O)N[C@@H](CCCCN)C(=O)N[C@H](C(=O)N[C@@H](CCCNC(=N)N)C(=O)N[C@@H](CC(C)C)C(=O)N[C@@H](CCC(N)=O)C(=O)N[C@@H](CC(C)C)C(=O)N[C@H](C(=O)N[C@@H](CCC(=O)O)C(=O)N[C@@H](Cc1ccccc1)C(=O)N[C@@H](CO)C(=O)N[C@@H](C)C(=O)N[C@@H](Cc1ccccc1)C(=O)N[C@H](C(=O)N[C@@H](CCC(=O)O)C(=O)N1CCC[C@H]1C(=O)N1CCC[C@H]1C(=O)N[C@@H](CC(=O)O)C(=O)N[C@@H](C)C(=O)N[C@H](C(=O)N[C@@H](CC(=O)O)C(=O)O)C(C)C)C(C)C)C(C)C)[C@@H](C)CC)[C@@H](C)CC` [TEAD] (H-VKKKKIKAEIKIRLQLVEFSAFVEPPDAVD-OH; N-terminus and C-terminus assumed), the results for the IC50 in data set [2] and in data set [4] were 44 µM and 35 µM, respectively. In addition, in data set [3], the cytotoxicity worked out at 60%.

`CC[C@H](C)[C@H](NC(=O)[C@H](CCCCN)NC(=O)[C@H](CCCCN)NC(=O)[C@H](CCCCN)NC(=O)[C@H](CCCCN)NC(=O)[C@@H](N)C(C)C)C(=O)N[C@@H](CCCCN)C(=O)N[C@@H](C)C(=O)N[C@@H](CCC(=O)O)C(=O)N[C@H](C(=O)N[C@@H](CCCCN)C(=O)N[C@H](C(=O)N[C@@H](CCCCN)C(=O)N[C@H](C(=O)N[C@@H](C)C(=O)N[C@@H](CC(N)=O)C(=O)N[C@H](C(=O)N1CCC[C@H]1C(=O)N[C@@H](CCC(N)=O)C(=O)N[C@H](C(=O)N[C@H](C(=O)N1CCC[C@H]1C(=O)N[C@@H](CCSC)C(=O)N[C@@H](CCCNC(=N)N)C(=O)N[C@@H](CC(C)C)C(=O)N[C@@H](CCCNC(=N)N)C(=O)N[C@@H](CCCCN)C(=O)N[C@@H](CC(C)C)C(=O)N1CCC[C@H]1C(=O)N[C@@H](CC(=O)O)C(=O)O)C(C)C)[C@@H](C)O)C(C)C)[C@@H](C)O)[C@@H](C)CC)[C@@H](C)CC` [YAP] (H-VKKKKIKAEIKIKTANVPQTVPMRLRKLPD-OH): the “Letal Dose (μM) LD25” value in the data set on OVCAR8 cells is over 100 µM; with ES2 cells (Table VIII, MTT, 25% cell death), over 100 µM; with A549 cells (setting [5]), over 100 µM; in the data set with H1299 cells (setting [5]), over 100 µM; in the data set on HBEC RasV12 cells (setting [5]) it was over 100 µM; in the data set on H1650 cells (setting [5]), over 100 µM. In addition, the “Letal Dose (μM) LD25” value is over 100 µM in the data set on H1975 cells (setting [5]); over 100 µM in the data set on HBEC wt cells (Table II, HBEC WT, 72 h, MTT, 25% cell death); over 100 µM in the data set on IGROV-1 cells; over 100 µM with SKOV3 cells. Further, the “Cell viability (%)” value in the data set with A549 cells (setting [6]) was −23.19%; with A549 cells (setting [7]), −10.25%; with H1299 cells (setting [6]), −40.21%; in the data set on H1299 cells (setting [7]), −13.8%; in the data set with HBEC RasV12 cells (setting [6]), −72.88%; in the data set on HBEC RasV12 cells (setting [7]), −44.98%. For the same molecule, the “Cell viability (%)” value with H1650 cells (setting [6]) is −45.14%; with H1650 cells (setting [7]), −4.488%; in the data set with H1975 cells (setting [6]), −26.22%; in the data set with H1975 cells (setting [7]), −5.766%; with HBEC wt cells (setting [6]), −60.73%; with HBEC wt cells (setting [7]), −41.35%. The cytotoxicity entry in [4] (MP41, 100 μM) was “about 40%”.

Regarding `CC[C@H](C)[C@H](NC(=O)[C@H](CCCCN)NC(=O)[C@H](CCCCN)NC(=O)[C@H](CCCCN)NC(=O)[C@H](CCCCN)NC(=O)[C@@H](N)C(C)C)C(=O)N[C@@H](CCCCN)C(=O)N[C@@H](C)C(=O)N[C@@H](CCC(=O)O)C(=O)N[C@H](C(=O)N[C@@H](CCCCN)C(=O)N[C@H](C(=O)N1CCC[C@H]1C(=O)N1CCC[C@H]1C(=O)N[C@@H](Cc1c[nH]cn1)C(=O)N[C@@H](C)C(=O)N[C@@H](Cc1ccccc1)C(=O)N[C@@H](Cc1ccccc1)C(=O)N[C@@H](CC(C)C)C(=O)N[C@H](C(=O)N[C@@H](CCCCN)C(=O)N[C@@H](Cc1ccccc1)C(=O)N[C@@H](Cc1c[nH]c2ccccc12)C(=O)N[C@@H](C)C(=O)N[C@@H](CC(=O)O)C(=O)N[C@@H](CC(C)C)C(=O)N[C@@H](CC(N)=O)C(=O)N[C@@H](Cc1c[nH]c2ccccc12)C(=O)NCC(=O)N1CCC[C@H]1C(=O)N[C@@H](CO)C(=O)NCC(=O)N[C@@H](CCC(=O)O)C(=O)N[C@@H](CCC(=O)O)C(=O)N[C@@H](C)C(=O)NCC(=O)N[C@@H](C)C(=O)NCC(=O)O)C(C)C)[C@@H](C)CC)[C@@H](C)CC` [TAZ “LV”] (H-VKKKKIKAEIKIPPHAFFLVKFWADLNWGPSGEEAGAG-OH; N-terminus and C-terminus assumed), the “effect on cellular viability, TAZ “LV” compared with TAZ “VL”” value in data set [1] was “same effect”; in the data set with ES2 cells (0.1 to 100 μM (FIG. 7)), “more effective than TAZ “VL””. For the same molecule, the viability entry in data set [2] (human, 25 µM) is “about 20%”; in data set [4] (human, 25 µM), “about 20%”.
